Strand notation (5' to 3'): a small letter for the sugar, then the base; units joined by * are phosphorothioate-linked, units joined directly phosphodiester-linked; [ ] holds rarer units or linkages, { } end groups; capitals alone tell only the bases. e = 2'-O-(2-methoxyethyl) (MOE); k = constrained ethyl (cEt); [5mC] = 5-methylcytosine; d = 2'-deoxy (DNA)

This data set has as its system human PKK mRNA. The data set is described as follows: Antisense inhibition of human PKK mRNA in HepaRG cells, 1,000 nM, MOE/deoxy/cEt oligonucleotides (Example 3). Format: cell-based. A digest of the protocol:
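Readout is percent PKK mRNA reduction against untreated controls, by real-time PCR (RTS3454) adjusted for total RNA via RIBOGREEN. Oligonucleotides, phosphorothioate gapmers of 16 nucleosides with cEt, MOE and deoxy sugars, were delivered at 1,000 nM by electroporation to 20,000 HepaRG cells/well for roughly 24 h.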

[1] abbreviates: Table 27, HepaRG cells, 1,000 nM antisense oligonucleotide, human PKK mRNA.
Setting [2] is: HepaRG cells, 1,000 nM antisense oligonucleotide, Table 29.
Setting [3] is: Table 20, HepaRG cells, electroporation with 1,000 nM antisense oligonucleotide, approximately 24 hours, PKK mRNA by RT-PCR (RTS3454), relative to untreated control cells.
The mark [4] stands for this setting: Table 22 experiment, HepaRG cells, electroporation with 1,000 nM antisense oligonucleotide, approx. 24 hours, PKK mRNA by RT-PCR (RTS3454), relative to untreated control cells.
Setting [5] is: Table 28, HepaRG cells, 1,000 nM antisense oligonucleotide, human PKK mRNA.
The mark [6] stands for this setting: Table 19, HepaRG cells, electroporation with 1,000 nM antisense oligonucleotide, approximately 24 hours, PKK mRNA by RT-PCR (RTS3454), relative to untreated control cells.
Where [7] appears, read: Table 21 experiment, HepaRG cells, electroporation with 1,000 nM antisense oligonucleotide, approx. 24 hours, PKK mRNA by RT-PCR (RTS3454), relative to untreated control cells.
The mark [8] stands for this setting: HepaRG cells, electroporation with 1,000 nM antisense oligonucleotide, approximately 24 hours, primer probe set RTS3454, relative to untreated control cells, experiment of Table 24.
The mark [9] stands for this setting: HepaRG cells, electroporation with 1,000 nM antisense oligonucleotide, approx. 24 hours, PKK mRNA by RT-PCR (RTS3454), relative to untreated control cells, Table 26 experiment.
[10] abbreviates: PKK mRNA, HepaRG cells, 1,000 nM antisense oligonucleotide, Table 31.
Where [11] appears, read: Table 30, human PKK mRNA, HepaRG cells, 1,000 nM antisense oligonucleotide.

What is called % inhibition is the change of the read-out against control, counted positive when it falls. On to “548327 (e[5mC]*eT*kA*d[5mC]*dA*d[5mC]*d[5mC]*dT*dT*dT*d[5mC]*dT*dG*k[5mC]*kA*e[5mC]; antisense) [compound 548327]”, for which, under setting [1], the “% inhibition” value was determined as 6%.
With “548550 (antisense e[5mC]*e[5mC]*kG*dG*d[5mC]*d[5mC]*dT*dG*dG*dA*dT*dA*d[5mC]*kA*kG*e[5mC]) [compound 548550]”, under setting [2], the “% inhibition” value was determined as 0%.
For “547846 (antisense eT*e[5mC]*kG*dA*dT*dG*dG*d[5mC]*dA*dA*dG*d[5mC]*dA*k[5mC]*kT*eT) [compound 547846]”, the “% inhibition” value came out at 0% under setting [3] and 42% under setting [4].
Take “548535 (antisense eG*eA*kG*dT*d[5mC]*dT*dT*dT*d[5mC]*d[5mC]*dA*dA*dT*k[5mC]*k[5mC]*eT) [compound 548535]”: the “% inhibition” value under setting [5] is 13%.
Take “548090 (antisense e[5mC]*eA*kA*dA*d[5mC]*dT*dA*dA*dG*dG*dG*dA*d[5mC]*k[5mC]*kA*e[5mC]) [compound 548090]”: under setting [6], the “% inhibition” value is 46%.
In the case of “547810 (e[5mC]*e[5mC]*kT*d[5mC]*dA*dT*d[5mC]*dT*dG*dG*d[5mC]*dA*dG*kT*kA*eT; antisense) [compound 547810]”, the “% inhibition” value under setting [7] is listed as 60%.
Take “548597 (eT*eG*kA*dA*dT*dA*d[5mC]*d[5mC]*dA*dT*d[5mC]*d[5mC]*d[5mC]*k[5mC]*kG*e[5mC]; antisense) [compound 548597]”: under setting [2], the “% inhibition” value was found to be 50%.
Consider “548032 (eA*eG*kA*dT*dG*d[5mC]*dG*d[5mC]*d[5mC]*dA*dA*dA*d[5mC]*kA*kT*e[5mC]; antisense) [compound 548032]”, for which the “% inhibition” value under setting [8] is listed as 51%.
For “548357 (antisense eG*eA*k[5mC]*dG*dA*d[5mC]*dT*dG*d[5mC]*d[5mC]*d[5mC]*dT*dG*kT*kG*e[5mC]) [compound 548357]”, the “% inhibition” value under setting [1] is reported as 69%.
In the case of “548277 (antisense eG*eG*kA*dT*dT*dG*dG*dA*d[5mC]*d[5mC]*d[5mC]*dA*dG*kA*k[5mC]*eA) [compound 548277]”, the “% inhibition” value under setting [9] amounted to 57%.
In the case of “548665 (antisense eG*e[5mC]*kT*d[5mC]*d[5mC]*d[5mC]*dG*dG*d[5mC]*d[5mC]*dA*dT*dT*kA*kG*e[5mC]) [compound 548665]”, the “% inhibition” value under setting [10] is on record as 8%.
Regarding “547841 (antisense e[5mC]*eA*k[5mC]*dA*dT*dT*dG*d[5mC]*dT*dT*d[5mC]*dA*dA*kG*kG*eA) [compound 547841]”, the “% inhibition” value under setting [7] stood at 42%.
In the case of “548067 (e[5mC]*eA*kG*dT*dT*dG*dG*dT*dA*dT*dA*dA*dA*kT*kT*eG; antisense) [compound 548067]”, the “% inhibition” value under setting [8] is 18%.
Take “548659 (antisense e[5mC]*e[5mC]*kA*dA*d[5mC]*d[5mC]*dT*d[5mC]*dT*dA*dA*dG*dG*k[5mC]*kT*eA) [compound 548659]”: the “% inhibition” value under setting [10] is reported as 17%.
Take “547855 (antisense eT*eA*kT*d[5mC]*dA*dA*d[5mC]*dT*d[5mC]*d[5mC]*dT*dT*dT*kA*kT*eA) [compound 547855]”: the “% inhibition” value is, setting by setting: under setting [3], 59%; under setting [4], 38%.
With “548306 (eA*eT*kG*dT*dG*dA*d[5mC]*dA*dG*dT*d[5mC]*dA*dG*kG*kG*eA; antisense) [compound 548306]”, the “% inhibition” value under setting [1] stood at 8%.
As to “548428 (antisense eT*eA*kA*d[5mC]*dT*dA*dT*dA*dA*d[5mC]*dA*dG*dT*kA*kT*e[5mC]) [compound 548428]”, the “% inhibition” value under setting [11] was 0%.
As to “548332 (antisense eG*eA*kT*dG*dA*dA*dA*dT*dG*dT*dG*d[5mC]*dA*k[5mC]*k[5mC]*eT) [compound 548332]”, the “% inhibition” value under setting [1] is recorded as 46%.
Consider “548510 (antisense eT*eT*kA*dG*d[5mC]*d[5mC]*dA*d[5mC]*dT*d[5mC]*d[5mC]*dT*d[5mC]*kT*kT*eG) [compound 548510]”, for which the “% inhibition” value under setting [5] stood at 30%.
As to “548037 (eA*eA*kT*dG*dT*d[5mC]*dT*dG*dA*d[5mC]*dA*dG*dA*kT*kT*eT; antisense) [compound 548037]”, the “% inhibition” value under setting [8] is reported as 70%.
Regarding “548250 (antisense e[5mC]*eT*kT*dT*dG*dT*dG*dA*dT*dG*d[5mC]*dG*dA*kT*kT*eT) [compound 548250]”, under setting [9], the “% inhibition” value was found to be 0%.
Still for that read-out and setting: as for “548298 (eG*eG*kA*d[5mC]*dA*dA*dT*dA*dT*dG*dT*d[5mC]*dT*k[5mC]*k[5mC]*eT; antisense) [compound 548298]”, the figure is 0%; as for “548236 (eT*eA*k[5mC]*dA*dT*d[5mC]*dT*dA*dG*dA*dT*dG*dA*k[5mC]*k[5mC]*eT; antisense) [compound 548236]”, 37%.
For “548673 (antisense eG*eA*k[5mC]*d[5mC]*dT*dT*dG*d[5mC]*dT*dT*d[5mC]*d[5mC]*dA*kT*kG*eT) [compound 548673]”, the “% inhibition” value under setting [10] worked out at 40%.
With “547771 (antisense e[5mC]*eT*kT*dG*dG*dA*dG*dG*dT*dG*dA*dG*dT*k[5mC]*kT*e[5mC]) [compound 547771]”, the “% inhibition” value under setting [7] is recorded as 60%.
For “548003 (eT*eA*kA*d[5mC]*d[5mC]*dA*dG*dA*dG*d[5mC]*dT*d[5mC]*d[5mC]*k[5mC]*kT*eT; antisense) [compound 548003]”, under setting [8], the “% inhibition” value came out at 66%.
For “548310 (eG*eA*kG*dG*dA*dG*dT*dT*dG*dG*dT*dT*dT*kA*kG*eT; antisense) [compound 548310]”, the “% inhibition” value under setting [1] is 0%.
Consider “547795 (antisense eA*e[5mC]*k[5mC]*dT*d[5mC]*dT*dG*dA*dA*dG*dA*dA*dG*kG*k[5mC]*eG) [compound 547795]”, for which the “% inhibition” value under setting [7] was determined as 66%.
With “548014 (eT*eG*kT*d[5mC]*d[5mC]*d[5mC]*d[5mC]*dA*dG*dT*dG*dT*dT*kA*k[5mC]*eA; antisense) [compound 548014]”, the “% inhibition” value under setting [8] is 31%.
For “548663 (antisense eG*e[5mC]*k[5mC]*d[5mC]*dT*dA*dG*dA*dA*dG*dG*dG*d[5mC]*k[5mC]*k[5mC]*eA) [compound 548663]”, the “% inhibition” value under setting [10] was found to be 20%.
“547837 (eT*eG*kT*d[5mC]*d[5mC]*dA*dG*dA*dA*dA*d[5mC]*dT*dG*k[5mC]*kA*e[5mC]; antisense) [compound 547837]”: the “% inhibition” value under setting [7] worked out at 51%.
As to “548353 (antisense e[5mC]*eT*kG*d[5mC]*dT*dG*dG*dT*dT*dG*dA*dG*dA*kA*kT*e[5mC]) [compound 548353]”, under setting [1], the “% inhibition” value was 48%.
Consider “547786 (antisense eA*eG*kT*dT*dG*d[5mC]*dT*dT*dG*d[5mC]*dT*dT*dG*kA*kA*eT) [compound 547786]”, for which the “% inhibition” value under setting [7] was found to be 44%.
Consider “548078 (eT*e[5mC]*kT*dT*d[5mC]*dA*dT*dT*dT*dG*dT*dT*dA*k[5mC]*k[5mC]*eA; antisense) [compound 548078]”, for which the “% inhibition” value under setting [6] is given as 36%.
Regarding “548438 (antisense e[5mC]*eT*kA*dT*dA*dT*d[5mC]*dA*d[5mC]*dT*dG*dT*dA*k[5mC]*k[5mC]*eT) [compound 548438]”, under setting [11], the “% inhibition” value is listed as 38%.
With “548308 (eA*eA*kT*dG*dG*d[5mC]*dA*dG*dG*dT*d[5mC]*d[5mC]*dT*kG*kG*e[5mC]; antisense) [compound 548308]”, the “% inhibition” value under setting [1] is reported as 9%.
As to “548564 (antisense eT*eT*kG*d[5mC]*dT*dA*d[5mC]*dT*dT*dT*dA*d[5mC]*dA*k[5mC]*k[5mC]*eA) [compound 548564]”, under setting [2], the “% inhibition” value amounted to 69%.
On to “548405 (e[5mC]*eG*kG*dA*d[5mC]*d[5mC]*dT*dT*d[5mC]*dA*dT*d[5mC]*dT*kT*k[5mC]*eA; antisense) [compound 548405]”, for which the “% inhibition” value under setting [11] came to 35%.
“548088 (antisense eA*eA*k[5mC]*dT*dA*dA*dG*dG*dG*dA*d[5mC]*d[5mC]*dA*k[5mC]*k[5mC]*eT) [compound 548088]”: the “% inhibition” value under setting [6] was 27%.
As for “548536 (antisense eT*e[5mC]*kT*d[5mC]*dA*dA*dT*d[5mC]*d[5mC]*d[5mC]*dA*dA*d[5mC]*k[5mC]*k[5mC]*e[5mC]) [compound 548536]”, under setting [2], the “% inhibition” value was determined as 0%.
Regarding “547815 (eA*eA*k[5mC]*dT*dT*dG*d[5mC]*dT*dG*dG*dA*dA*dG*kA*kA*eA; antisense) [compound 547815]”, the “% inhibition” value under setting [7] was 3%.
Regarding “548112 (antisense eG*eT*kG*dA*d[5mC]*dT*dG*d[5mC]*dA*dT*d[5mC]*dT*dG*kA*kG*e[5mC]) [compound 548112]”, under setting [6], the “% inhibition” value turned out to be 23%.
Take “548173 (e[5mC]*eT*k[5mC]*dA*dG*dT*dT*dG*d[5mC]*dG*dA*d[5mC]*d[5mC]*kT*k[5mC]*eG; antisense) [compound 548173]”: the “% inhibition” value (HepaRG cells, electroporation with 1,000 nM antisense oligonucleotide, approx. 24 hours, PKK mRNA by RT-PCR (RTS3454), relative to untreated control cells, Table 25 experiment) came to 51%.
For the substance “548271 (antisense eT*eT*k[5mC]*dA*d[5mC]*dT*dT*dA*d[5mC]*d[5mC]*dA*d[5mC]*dA*kG*kG*eA) [compound 548271]”, the “% inhibition” value under setting [9] was 56%.

The values are drawn from patent US11840686B2, “Modulation of prekallikrein (PKK) expression” (Ionis Pharmaceuticals, Inc., priority 2013, dated 2023).
